ChEMBL document CHEMBL1201862, “PubChem BioAssay data set” (2004)
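How tested: cells in 96-well plates exposed to compound for 48 hours at five concentrations. GI50 is the concentration that inhibits growth by half.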 The source made the active and inactive calls. Rule as the data show it: active = GI50 up to about 1.1 µM and inactive = higher.

Legend:
Experiment in all cases: inhibition of tumour cell growth, NCI panel, 48 h
[1] = test system: IGROV-1
[2] = test system: SF-539
[3] = test system: ACHN
[4] = test system: SN12C
[5] = test system: UACC-62
[6] = test system: A498
[7] = test system: SR
[8] = test system: PC-3
[9] = test system: RXF 393
[10] = test system: MDA-MB-435
[11] = test system: CAKI-1
[12] = test system: CCRF-CEM
[13] = test system: MDA-N
[14] = test system: HCC 2998
[15] = test system: NCI-H23
[16] = test system: DU-145
[17] = test system: SNB-19
[18] = test system: OVCAR-8
[19] = test system: KM12
[20] = test system: 786-0

Compound	GI50 [1]	GI50 [2]	GI50 [3]	GI50 [4]	GI50 [5]	GI50 [6]	GI50 [7]	GI50 [8]	GI50 [9]	GI50 [10]	GI50 [11]	GI50 [12]	GI50 [13]	GI50 [14]	GI50 [15]	GI50 [16]	GI50 [17]	GI50 [18]	GI50 [19]	GI50 [20]
CC(C)Oc1cccc(N2C(Nc3ccccc3)=Nc3ccncc3S2(=O)=O)c1	25.4 µM (inactive)	23.8 µM (inactive)	26.5 µM (inactive)	30.8 µM (inactive)	19.9 µM (inactive)	25.7 µM (inactive)	10.9 µM (inactive)	6.12 µM (inactive)	21.9 µM (inactive)	11.8 µM (inactive)	26 µM (inactive)	7.55 µM (inactive)	23.1 µM (inactive)	1.69 µM (inactive)	32.9 µM (inactive)	42.4 µM (inactive)	34.8 µM (inactive)	18.2 µM (inactive)	20.7 µM (inactive)	17.7 µM (inactive)
Cc1cc(S(=O)(=O)Nc2nc(Nc3ccc(Cl)cc3)n[nH]2)c(S)cc1Cl	70.5 µM (inactive)	> 100 µM (inactive)	37.9 µM (inactive)	> 100 µM (inactive)	18.9 µM (inactive)	> 100 µM (inactive)	> 100 µM (inactive)	> 100 µM (inactive)	> 100 µM (inactive)	> 100 µM (inactive)	36 µM (inactive)	> 100 µM (inactive)	55.2 µM (inactive)	> 100 µM (inactive)	82.8 µM (inactive)	> 100 µM (inactive)	80.9 µM (inactive)	> 100 µM (inactive)	31.6 µM (inactive)	> 100 µM (inactive)
CC1=NNC(=S)NCCCN2CCN(CCCNC(=S)NN=C(C)C=NNC(=S)NCCCN3CCN(CCCNC(=S)NN=C1)CC3)CC2	> 100 µM (inactive)	> 100 µM (inactive)	> 100 µM (inactive)	> 100 µM (inactive)	> 100 µM (inactive)	> 100 µM (inactive)	> 100 µM (inactive)	> 100 µM (inactive)	> 100 µM (inactive)	> 100 µM (inactive)	> 100 µM (inactive)	> 100 µM (inactive)	> 100 µM (inactive)	> 100 µM (inactive)	> 100 µM (inactive)	> 100 µM (inactive)	> 100 µM (inactive)	> 100 µM (inactive)	> 100 µM (inactive)	> 100 µM (inactive)
O=C1c2cc(CCl)sc2C(=O)c2ccsc21	1.49 µM (inactive)	0.228 µM (active)	0.327 µM (active)	0.277 µM (active)	0.178 µM (active)	1.63 µM (inactive)	0.142 µM (active)	0.254 µM (active)	0.231 µM (active)	0.0187 µM (active)	1.72 µM (inactive)	0.173 µM (active)	0.0183 µM (active)	1.67 µM (inactive)	0.0618 µM (active)	0.191 µM (active)	0.225 µM (active)	0.215 µM (active)	1.62 µM (inactive)	1.53 µM (inactive)
O=C(O)c1ccc2c(O)c(O)ccc2c1	19.7 µM (inactive)	4.81 µM (inactive)	15.8 µM (inactive)	8.61 µM (inactive)	> 10 µM (inactive)	44.4 µM (inactive)	3.17 µM (inactive)	33.7 µM (inactive)	20.9 µM (inactive)	14.1 µM (inactive)	21.6 µM (inactive)		18.5 µM (inactive)	33.3 µM (inactive)	22 µM (inactive)	39.8 µM (inactive)	18.8 µM (inactive)	20 µM (inactive)	16.4 µM (inactive)	18.1 µM (inactive)
O=[N+]([O-])c1ccc2sc(/C=N/c3cnccn3)cc2c1	58.3 µM (inactive)	31.6 µM (inactive)	30.9 µM (inactive)	45.6 µM (inactive)	17.1 µM (inactive)	27.4 µM (inactive)	14.5 µM (inactive)	31 µM (inactive)	0.597 µM (active)	18.4 µM (inactive)	57.3 µM (inactive)	13.7 µM (inactive)	24.1 µM (inactive)	18.7 µM (inactive)	63 µM (inactive)	21.5 µM (inactive)	65 µM (inactive)	45.4 µM (inactive)	57.5 µM (inactive)	33.5 µM (inactive)
C1CSC(Sc2nc(SC3=NCCS3)nc(SC3=NCCS3)n2)=N1	> 100 µM (inactive)	> 100 µM (inactive)	> 100 µM (inactive)	> 100 µM (inactive)	> 100 µM (inactive)	> 100 µM (inactive)	> 100 µM (inactive)	> 100 µM (inactive)	> 100 µM (inactive)	> 100 µM (inactive)	> 100 µM (inactive)	> 100 µM (inactive)	> 100 µM (inactive)	> 100 µM (inactive)	> 100 µM (inactive)	> 100 µM (inactive)	> 100 µM (inactive)	> 100 µM (inactive)	> 100 µM (inactive)	> 100 µM (inactive)
CC(C)C1CC(CO)(CNc2cc(Cl)nc(N)n2)C1 (stereo unspecified)	> 100 µM (inactive)	73.8 µM (inactive)	> 100 µM (inactive)	> 100 µM (inactive)	> 100 µM (inactive)	4.49 µM (inactive)	14.9 µM (inactive)	71 µM (inactive)	19.7 µM (inactive)	46.1 µM (inactive)	> 100 µM (inactive)	75.7 µM (inactive)	57.7 µM (inactive)	34.8 µM (inactive)		> 100 µM (inactive)	> 100 µM (inactive)	88.9 µM (inactive)	> 100 µM (inactive)	> 100 µM (inactive)
CC12c3c4cccc3Oc3cc(N)cc(c31)Oc1cc(N)cc(c12)O4	3.44 µM (inactive)	2.96 µM (inactive)	11.1 µM (inactive)	8.28 µM (inactive)	4.59 µM (inactive)	2.74 µM (inactive)	6.22 µM (inactive)	3.58 µM (inactive)	0.408 µM (active)	1.24 µM (inactive)	9.86 µM (inactive)	0.736 µM (active)	1.31 µM (inactive)	4.61 µM (inactive)	8.43 µM (inactive)	5.52 µM (inactive)	7.14 µM (inactive)	0.524 µM (active)	4.26 µM (inactive)	2.56 µM (inactive)
C/C(=N\NC(N)=O)C(CN1CCOCC1)C(c1ccccc1)c1c(O)c2ccccc2oc1=O (stereo unspecified)	> 100 µM (inactive)	> 100 µM (inactive)	> 100 µM (inactive)		> 100 µM (inactive)	8.63 µM (inactive)	> 100 µM (inactive)	> 100 µM (inactive)		> 100 µM (inactive)	> 100 µM (inactive)	> 100 µM (inactive)	> 100 µM (inactive)	> 100 µM (inactive)	> 100 µM (inactive)	> 100 µM (inactive)	> 100 µM (inactive)	> 100 µM (inactive)	> 100 µM (inactive)	> 100 µM (inactive)
